# Measurements reported in patent US12371428B2 (Exelixis, Inc., priority 2019, dated 2025).
# What was measured:
# [1] = target: KDR (phospho-KDR, VEGF165-stimulated HUVEC cells) (Homo sapiens (Human), UniProt P35968); test: KDR autophosphorylation ELISA in HUVEC cells (Example G); assay type: cell-based; conditions: cellular activity; KDR autophosphorylation ELISA in HUVEC cells
# Procedure, shortened: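 Cells seeded, grown 24 h at 37 °C, starved 24 h serum-free; cpd 8-pt curve, 0.3% DMSO, 1 h; VEGF165 100 ng/mL, 5 min; cold PBS wash, lysis with orthovanadate and protease/phosphatase inhibitors; pKDR ELISA; IC50 by 4-parameter logistic regression.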
# [2] = target: Human KDR (residues 790-1356) (Homo sapiens (Human), UniProt P35968); test: Human KDR kinase assay, HTRF KinEase (Example B-2); assay type: biochemical; conditions: protocol of Example B-2 (other compounds)
# Human KDR (residues 790-1356), sequence (P35968 790-1356): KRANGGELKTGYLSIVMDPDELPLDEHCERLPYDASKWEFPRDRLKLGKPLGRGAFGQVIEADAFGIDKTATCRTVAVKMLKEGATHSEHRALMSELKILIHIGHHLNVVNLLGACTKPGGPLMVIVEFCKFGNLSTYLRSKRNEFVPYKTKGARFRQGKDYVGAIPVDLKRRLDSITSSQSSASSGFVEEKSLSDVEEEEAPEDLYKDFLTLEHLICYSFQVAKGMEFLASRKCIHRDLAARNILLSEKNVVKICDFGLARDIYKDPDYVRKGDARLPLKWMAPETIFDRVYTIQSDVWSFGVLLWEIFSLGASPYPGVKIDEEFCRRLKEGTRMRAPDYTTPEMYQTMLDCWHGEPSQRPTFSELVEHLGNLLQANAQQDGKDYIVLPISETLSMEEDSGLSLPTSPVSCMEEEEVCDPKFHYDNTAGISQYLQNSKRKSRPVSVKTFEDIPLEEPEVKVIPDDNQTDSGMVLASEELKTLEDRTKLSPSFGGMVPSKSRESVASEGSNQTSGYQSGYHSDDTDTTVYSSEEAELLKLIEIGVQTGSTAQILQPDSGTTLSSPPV
# Procedure, shortened: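 Human KDR residues 790-1356 (0.1 ng/well) in buffer with 5 mM MgCl2, 1 mM MnCl2, 1 mM DTT, biotinylated peptide substrate, ATP at Km (4.0 μM), 3% DMSO, 10 compound concentrations; 40 min, room temperature. EDTA stop, streptavidin-XL665/Eu-TK antibody HTRF read 665/620 nm; 4-parameter IC50.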
# KDR (phospho-KDR, VEGF165-stimulated HUVEC cells), sequence (P35968 20-1356): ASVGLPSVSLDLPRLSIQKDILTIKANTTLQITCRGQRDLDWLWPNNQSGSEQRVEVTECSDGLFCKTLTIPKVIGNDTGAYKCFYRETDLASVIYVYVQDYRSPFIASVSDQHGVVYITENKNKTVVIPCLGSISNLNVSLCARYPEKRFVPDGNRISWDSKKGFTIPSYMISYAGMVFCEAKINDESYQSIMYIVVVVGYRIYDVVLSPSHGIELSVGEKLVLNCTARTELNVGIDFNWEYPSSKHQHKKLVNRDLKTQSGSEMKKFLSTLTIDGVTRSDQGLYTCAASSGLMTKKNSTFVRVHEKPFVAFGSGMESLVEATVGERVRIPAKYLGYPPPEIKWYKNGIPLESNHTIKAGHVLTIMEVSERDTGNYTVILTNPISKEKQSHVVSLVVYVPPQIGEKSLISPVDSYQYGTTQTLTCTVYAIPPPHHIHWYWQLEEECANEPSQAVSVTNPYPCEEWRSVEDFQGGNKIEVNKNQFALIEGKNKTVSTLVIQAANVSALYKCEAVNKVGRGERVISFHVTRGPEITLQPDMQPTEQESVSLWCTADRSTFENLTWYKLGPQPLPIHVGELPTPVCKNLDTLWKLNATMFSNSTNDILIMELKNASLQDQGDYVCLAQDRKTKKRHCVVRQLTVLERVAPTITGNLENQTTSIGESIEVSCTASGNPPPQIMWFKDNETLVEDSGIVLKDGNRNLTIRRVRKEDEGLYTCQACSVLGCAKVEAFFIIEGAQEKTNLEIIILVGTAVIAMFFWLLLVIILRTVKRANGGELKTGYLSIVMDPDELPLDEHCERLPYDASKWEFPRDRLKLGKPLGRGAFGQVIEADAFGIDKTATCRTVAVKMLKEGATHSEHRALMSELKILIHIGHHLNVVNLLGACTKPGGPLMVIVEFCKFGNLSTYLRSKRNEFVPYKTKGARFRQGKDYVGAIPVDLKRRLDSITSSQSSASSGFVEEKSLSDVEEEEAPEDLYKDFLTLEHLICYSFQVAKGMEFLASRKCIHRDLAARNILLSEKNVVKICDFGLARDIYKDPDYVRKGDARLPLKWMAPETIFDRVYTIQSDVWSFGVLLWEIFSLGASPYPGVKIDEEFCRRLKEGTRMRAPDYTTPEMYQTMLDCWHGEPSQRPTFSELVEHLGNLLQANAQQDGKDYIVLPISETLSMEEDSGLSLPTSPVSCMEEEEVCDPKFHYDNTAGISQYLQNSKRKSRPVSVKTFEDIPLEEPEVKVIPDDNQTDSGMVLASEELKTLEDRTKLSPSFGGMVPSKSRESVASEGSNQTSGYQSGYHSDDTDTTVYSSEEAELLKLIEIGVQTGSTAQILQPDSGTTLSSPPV
IC50 [1] [µM],IC50 [2] [µM],Compound
< 0.1,0.1 to 0.3,"Cc1nc(C)c(-c2ccc(F)cc2)c(O)c1C(=O)Nc1ccc(Oc2ccnc3cc(OCc4ccccc4)cnc23)c(F)c1 [Compound 277, 5-(4-Fluorophenyl)-N-[3-fluoro-4-[(7-phenylmethoxy-1,5-naphthyridin-4-yl)oxy]phenyl]-4-hydroxy-2,6-dimethylpyridine-3-carboxamide]"
> 0.3,> 0.3,"COc1ccc2nccc(Oc3ccc(NC(=O)c4ncc(C)n(-c5ccc(F)cc5)c4=O)cc3F)c2n1 [Compound 264, N-[3-Fluoro-4-[(6-methoxy-1,5-naphthyridin-4-yl)oxy]phenyl]-4-(4-fluorophenyl)-5-methyl-3-oxopyrazine-2-carboxamide]"
< 0.1,< 0.1,"COc1ccc2nccc(Oc3ccc(NC(=O)c4c(C)ccn(-c5ccc(F)cc5)c4=O)cc3F)c2n1 [Compound 287, N-[3-Fluoro-4-[(6-methoxy-1,5-naphthyridin-4-yl)oxy]phenyl]-1-(4-fluorophenyl)-4-methyl-2-oxopyridine-3-carboxamide]"
< 0.1,0.1 to 0.3,"COc1ccc2nccc(Oc3ccc(NC(=O)c4ccc(C)n(-c5ccc(F)cc5)c4=O)cc3)c2n1 [Compound 343, 1-(4-fluorophenyl)-N-[4-[(6-methoxy-1,5-naphthyridin-4-yl)oxy]phenyl]-6-methyl-2-oxopyridine-3-carboxamide]"
> 0.3,> 0.3,"COc1ccc2nccc(Oc3ccc(NC(=O)c4ncc(C)n(-c5ccc(F)cc5C)c4=O)cc3F)c2n1 [Compound 394, N-[3-fluoro-4-[(6-methoxy-1,5-naphthyridin-4-yl)oxy]phenyl]-4-(4-fluoro-2-methylphenyl)-5-methyl-3-oxopyrazine-2-carboxamide]"
> 0.3,> 0.3,"CCn1cc(C(=O)Nc2ccc(Oc3ccnc4cc(OC)c(OC)nc34)cc2)c(=O)c(-c2ccc(F)cc2C)c1CO [Compound 284, N-[4-[(6,7-Dimethoxy-1,5-naphthyridin-4-yl)oxy]phenyl]-1-ethyl-5-(4-fluoro-2-methylphenyl)-6-(hydroxymethyl)-4-oxopyridine-3-carboxamide]"
< 0.1,0.1 to 0.3,"COc1ccc2nccc(Oc3ccc(NC(=O)c4c(C)nc(C)c(-c5ccc(F)cc5)c4O)cc3F)c2c1 [Compound 345, N-[3-fluoro-4-(6-methoxyquinolin-4-yl)oxyphenyl]-5-(4-fluorophenyl)-4-hydroxy-2,6-dimethylpyridine-3-carboxamide]"
0.1 to 0.3,> 0.3,"C=C(C)c1cc(C(=O)Nc2ccc(Oc3ccnc4cc(OC)c(OC)nc34)c(F)c2)c(=O)n(-c2ccc(F)cc2)c1C [Compound 367, N-[4-[(6,7-dimethoxy-1,5-naphthyridin-4-yl)oxy]-3-fluorophenyl]-1-(4-fluorophenyl)-6-methyl-2-oxo-5-prop-1-en-2-ylpyridine-3-carboxamide]"
< 0.1,> 0.3,"Cc1ccc(C(=O)Nc2ccc(Oc3ccnc4ccc(OCCN5CCOCC5)nc34)c(F)c2)c(=O)n1-c1ccc(F)cc1 [Compound 351, N-[3-fluoro-4-[[6-(2-morpholin-4-ylethoxy)-1,5-naphthyridin-4-yl]oxy]phenyl]-1-(4-fluorophenyl)-6-methyl-2-oxopyridine-3-carboxamide]"
< 0.1,> 0.3,"COc1ccc2nccc(Oc3ccc(NC(=O)c4ccc(C)n(-c5ccc(F)cc5C)c4=O)cc3)c2n1 [Compound 276, 1-(4-Fluoro-2-methylphenyl)-N-[4-[(6-methoxy-1,5-naphthyridin-4-yl)oxy]phenyl]-6-methyl-2-oxopyridine-3-carboxamide]"
< 0.1,0.1 to 0.3,"COc1cnc2c(Oc3ccc(NC(=O)c4c(C)ccn(-c5ccc(F)cc5)c4=O)cc3)ccnc2c1 [Compound 300, 1-(4-Fluorophenyl)-N-[4-[(7-methoxy-1,5-naphthyridin-4-yl)oxy]phenyl]-4-methyl-2-oxopyridine-3-carboxamide]"
< 0.1,0.1 to 0.3,"CCOc1c(C(=O)Nc2ccc(Oc3ccnc4cc(OC)c(OC)nc34)c(F)c2)c(=O)c(-c2ccc(F)cc2)c(C)n1C [Compound 369, N-[4-[(6,7-dimethoxy-1,5-naphthyridin-4-yl)oxy]-3-fluorophenyl]-2-ethoxy-5-(4-fluorophenyl)-1,6-dimethyl-4-oxopyridine-3-carboxamide]"
< 0.1,< 0.1,"COc1cc2nccc(Oc3ccc(NC(=O)c4c(C)cc(C)n(-c5ccc(F)cc5C)c4=O)cc3F)c2nc1OC [Compound 298, N-[4-[(6,7-Dimethoxy-1,5-naphthyridin-4-yl)oxy]-3-fluorophenyl]-1-(4-fluoro-2-methylphenyl)-4,6-dimethyl-2-oxopyridine-3-carboxamide]"
> 0.3,> 0.3,"COc1cc2nccc(Oc3c(F)cc(NC(=O)c4cn(C)c(C)c(-c5ccc(F)cc5)c4=O)cc3F)c2nc1OC [Compound 392, N-[4-[(6,7-dimethoxy-1,5-naphthyridin-4-yl)oxy]-3,5-difluorophenyl]-5-(4-fluorophenyl)-1,6-dimethyl-4-oxopyridine-3-carboxamide]"
< 0.1,< 0.1,"COc1cnc2c(Oc3ccc(NC(=O)c4c(C)cc(C)n(-c5ccc(F)cc5)c4=O)cc3)ccnc2c1 [Compound 289, 1-(4-Fluorophenyl)-N-[4-[(7-methoxy-1,5-naphthyridin-4-yl)oxy]phenyl]-4,6-dimethyl-2-oxopyridine-3-carboxamide]"
> 0.3,> 0.3,"COc1cnc2c(Oc3ccc(NC(=O)c4ncc(C)n(-c5ccc(F)cc5)c4=O)cc3)ccnc2c1 [Compound 263, 4-(4-Fluorophenyl)-N-[4-[(7-methoxy-1,5-naphthyridin-4-yl)oxy]phenyl]-5-methyl-3-oxopyrazine-2-carboxamide]"
> 0.3,> 0.3,"COc1ccc2nccc(Oc3ccc(NC(=O)c4nccn(-c5ccc(F)cc5)c4=O)cc3F)c2n1 [Compound 380, N-[3-fluoro-4-[(6-methoxy-1,5-naphthyridin-4-yl)oxy]phenyl]-4-(4-fluorophenyl)-3-oxopyrazine-2-carboxamide]"
> 0.3,> 0.3,"COc1cnc2c(Oc3ccc(NC(=O)c4cnc(C)n(-c5ccc(F)cc5)c4=O)cc3)ccnc2c1 [Compound 266, 1-(4-Fluorophenyl)-N-[4-[(7-methoxy-1,5-naphthyridin-4-yl)oxy]phenyl]-2-methyl-6-oxopyrimidine-5-carboxamide]"
> 0.3,> 0.3,"COc1cc2nccc(Oc3ccc(NC(=O)C4=C5CCCN5CC(c5ccc(F)cc5)C4=O)cc3F)c2nc1OC (single isomer, unassigned; enantiomer 1) [Compound 374, N-[4-[(6,7-dimethoxy-1,5-naphthyridin-4-yl)oxy]-3-fluorophenyl]-6-(4-fluorophenyl)-7-oxo-2,3,5,6-tetrahydro-1H-indolizine-8-carboxamide, enantiomer 1]"
< 0.1,0.1 to 0.3,"Cc1ncc(C(=O)Nc2ccc(Oc3ccnc4ccc(OCCN5CCOCC5)nc34)c(F)c2)c(O)c1-c1ccc(F)cc1 [Compound 352, N-[3-fluoro-4-[[6-(2-morpholin-4-ylethoxy)-1,5-naphthyridin-4 yl]oxy]phenyl]-5-(4-fluorophenyl)-4-hydroxy-6-methylpyridine-3-carboxamide]"
< 0.1,< 0.1,"COc1cnc2c(Oc3ccc(NC(=O)c4c(C)ccn(-c5ccc(F)cc5)c4=O)cc3F)ccnc2c1 [Compound 294, N-[3-Fluoro-4-[(7-methoxy-1,5-naphthyridin-4-yl)oxy]phenyl]-1-(4-fluorophenyl)-4-methyl-2-oxopyridine-3-carboxamide]"
< 0.1,< 0.1,"COc1cc2nccc(Oc3ccc(NC(=O)c4ccnn(-c5ccc(F)cc5)c4=O)cc3F)c2nc1OC [Compound 386, N-[4-[(6,7-dimethoxy-1,5-naphthyridin-4-yl)oxy]-3-fluorophenyl]-2-(4-fluorophenyl)-3-oxopyridazine-4-carboxamide]"
< 0.1,< 0.1,"COc1cc2nccc(Oc3ccc(NC(=O)c4cn(C)c(C)c(-c5ccc(F)cc5)c4=O)cc3Cl)c2nc1OC [Compound 388, N-[3-chloro-4-[(6,7-dimethoxy-1,5-naphthyridin-4-yl)oxy]phenyl]-5-(4-fluorophenyl)-1,6-dimethyl-4-oxopyridine-3-carboxamide]"
0.1 to 0.3,> 0.3,"CCn1cc(C(=O)Nc2ccc(Oc3ccnc4cc(OC)c(OC)nc34)c(F)c2)c(=O)c(-c2ccc(F)cc2C)c1CO [Compound 283, N-[4-[(6,7-Dimethoxy-1,5-naphthyridin-4-yl)oxy]-3-fluorophenyl]-1-ethyl-5-(4-fluoro-2-methylphenyl)-6-(hydroxymethyl)-4-oxopyridine-3-carboxamide]"
< 0.1,0.1 to 0.3,"COc1cc2nccc(Oc3ccc(NC(=O)c4nccn(-c5ccc(F)cc5)c4=O)cc3)c2nc1OC [Compound 384, N-[4-[(6,7-dimethoxy-1,5-naphthyridin-4-yl)oxy]phenyl]-4-(4-fluorophenyl)-3-oxopyrazine-2-carboxamide]"
< 0.1,< 0.1,"Cc1nc(C)c(-c2ccc(F)cc2)c(O)c1C(=O)Nc1ccc(Oc2ccnc3ccc(OCCN4CCOCC4)nc23)c(F)c1 [Compound 355, N-[3-fluoro-4-[[6-(2-morpholin-4-ylethoxy)-1,5-naphthyridin-4-yl)oxy]phenyl]-5-(4-fluorophenyl)-4-hydroxy-2,6-dimethylpyridine-3-carboxamide]"
